Results as given in patent US8859574B2 (IRM LLC, priority 2008, dated 2014).

Target: T1, IGF-1R Ba/F3 (Homo sapiens, UniProt P08069)
T1 construct: fused on or other part: TEL- (or BCR-) IGF-1R in Ba/F3: the kinase part holds the site
Assay: Ba/F3 Cell Viability Inhibition Assay (IGF-1R Ba/F3)
Type: cell-based, murine
Conditions: Tel-TK transformed Ba/F3 cells, 48 hours, Britelite luminescence
Procedure, shortened: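 A 48 h compound treatment at 37 °C (3750 cells/well) was followed by Britelite luminescence to measure viability. Cells were Ba/F3 pro-B cells, IL-3-independent via TEL-fused IGF-1R kinase transduction. A logistic fit gave IC50 as 50% viability relative to DMSO control.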

T1 sequence (P08069 999-1274 limits assumed): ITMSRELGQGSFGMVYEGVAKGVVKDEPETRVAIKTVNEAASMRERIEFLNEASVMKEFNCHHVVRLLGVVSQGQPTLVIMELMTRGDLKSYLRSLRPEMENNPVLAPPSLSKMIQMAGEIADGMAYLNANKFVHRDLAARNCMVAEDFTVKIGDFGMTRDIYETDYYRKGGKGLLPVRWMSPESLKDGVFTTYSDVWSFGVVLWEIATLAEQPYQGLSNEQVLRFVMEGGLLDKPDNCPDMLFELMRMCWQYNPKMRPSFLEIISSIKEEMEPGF

SMILES	IC50 [nM]
Cc1cc(Nc2ncc(Cl)c(Nc3cc(C(F)(F)F)[nH]n3)n2)c(F)cc1C1CCN(CC(N)=O)CC1 [Compound 173, 2-(4-(4-(5-chloro-4-(5-(trifluoromethyl)-1H-pyrazol-3-ylamino)pyrimidin-2-ylamino)-5-fluoro-2-methylphenyl)piperidin-1-yl)acetamide]	49
Cc1cc(Nc2nc(Nc3cc(C)c(C4CCN(C(=O)NCCN(C)C)CC4)cc3F)ncc2Cl)n[nH]1 [Compound 109, 4-(4-(5-chloro-4-(5-methyl-1H-pyrazol-3-ylamino)pyrimidin-2-ylamino)-5-fluoro-2-methylphenyl)-N-(2-(dimethylamino)ethyl)piperidine-1-carboxamide]	60
Cc1cc(Nc2nc(Nc3cc(C)c(C4CCN(C(=O)OCCN(C)C)CC4)cc3F)ncc2Cl)n[nH]1 [Compound 108, (dimethylamino)ethyl 4-(4-(5-chloro-4-(5-methyl-1H-pyrazol-3-ylamino)pyrimidin-2-ylamino)-5-fluoro-2-methylphenyl)piperidine-1-carboxylate]	53
Cc1cc(Nc2nc(Nc3cc(C)c(C4CCCCN4CC(N)=O)cc3C)ncc2Cl)n[nH]1 (stereo not shown) [Compound 181, 2-(2-(4-(5-Chloro-4-(5-methyl-1H-pyrazol-3-ylamino)pyrimidin-2-ylamino)-2,5-dimethylphenyl)piperidin-1-yl)acetamide]	24
Cc1cc(Nc2nc(Nc3cc(C)c(C4CCN(CCCS(=O)(=O)N5CCC5)CC4)cc3F)ncc2Cl)n[nH]1 [Compound 243, N2-(4-(1-(3-(azetidin-1-ylsulfonyl)propyl)piperidin-4-yl)-2-fluoro-5-methylphenyl)-5-chloro-N4-(5-methyl-1H-pyrazol-3-yl)pyrimidine-2,4-diamine]	76
Cc1cc(Nc2nc(Nc3cc(C)c(C4CCN(CC(N)=O)CC4)cc3F)ncc2Cl)n[nH]1 [Compound 39, 2-(4-(4-(5-Chloro-4-(5-methyl-1H-pyrazol-3-ylamino)pyrimidin-2-ylamino)-5-fluoro-2-methylphenyl)piperidin-1-yl)acetamide]	19
Cc1cc(Nc2nc(Nc3cc(C)c(C4CCN(C5CC5)CC4)cc3C)ncc2Cl)n[nH]1 [Compound 250, 5-chloro-N2-(4-(1-cyclopropylpiperidin-4-yl)-2,5-dimethylphenyl)-N4-(5-methyl-1H-pyrazol-3-yl)pyrimidine-2,4-diamine]	25
CNC(=O)CN1CCC(c2cc(F)c(Nc3ncc(Cl)c(Nc4cc(C5CC5)[nH]n4)n3)cc2C)CC1 [Compound 32, 2-(4-(4-(5-chloro-4-(5-cyclopropyl-1H-pyrazol-3-ylamino)pyrimidin-2-ylamino)-5-fluoro-2-methylphenyl)piperidin-1-yl)-N-methylacetamide]	42
Cc1cc(Nc2nc(Nc3cc(C)c(C4CCN(Cc5noc(C(C)(C)C)n5)CC4)cc3C)ncc2Cl)n[nH]1 [Compound 266, N2-(4-(1-((5-tert-butyl-1,2,4-oxadiazol-3-yl)methyl)piperidin-4-yl)-2,5-dimethylphenyl)-5-chloro-N4-(5-methyl-1H-pyrazol-3-yl)pyrimidine-2,4-diamine]	25
Cc1cc(Nc2nc(Nc3cc(C)c(C4CCN(S(=O)(=O)CCCN5CCC5)CC4)cc3C)ncc2Cl)n[nH]1 [Compound 195, N2-(4-(1-(3-(azetidin-1-yl)propylsulfonyl)piperidin-4-yl)-2,5-dimethylphenyl)-5-chloro-N4-(5-methyl-1H-pyrazol-3-yl)pyrimidine-2,4-diamine]	27
Cc1cc(Nc2nc(Nc3cc(C)c(C4CCN(S(=O)(=O)c5cccnc5)CC4)cc3F)ncc2Cl)n[nH]1 [Compound 65, 5-chloro-N2-(2-fluoro-5-methyl-4-(1-(pyridin-3-ylsulfonyl)piperidin-4-yl)phenyl)-N4-(5-methyl-1H-pyrazol-3-yl)pyrimidine-2,4-diamine]	76
Cc1cc(Nc2nc(Nc3cc(C)c(C4CCN(C)CC4)cc3OC(C)C)ncc2Cl)n[nH]1 [Compound 3, 5-chloro-N2-(2-isopropoxy-5-methyl-4-(1-methylpiperidin-4-yl)phenyl)-N4-(5-methyl-1H-pyrazol-3-yl)pyrimidine-2,4-diamine]	104
CNC(=O)CN1CCC(c2cc(C)c(Nc3ncc(C(F)(F)F)c(Nc4cc(C)[nH]n4)n3)cc2C)CC1 [Compound 203, 2-(4-(2,5-dimethyl-4-(4-(5-methyl-1H-pyrazol-3-ylamino)-5-(trifluoromethyl)pyrimidin-2-ylamino)phenyl)piperidin-1-yl)-N-methylacetamide]	15
Cc1cc(Nc2nc(Nc3cc(C)c(C4CCN(CC(N)=O)CC4)cc3C)ncc2Cl)n[nH]1 [Compound 37, 2-(4-(4-(5-chloro-4-(5-methyl-1H-pyrazol-3-ylamino)pyrimidin-2-ylamino)-2,5-dimethylphenyl)piperidin-1-yl)acetamide]	13
Cc1cc(Nc2nc(Nc3cc(C)c(C4CCN(C(=O)[C@H]5C[C@@H](O)CN5C)CC4)cc3C)ncc2Cl)n[nH]1 [Compound 123, (4-(4-(5-chloro-4-(5-methyl-1H-pyrazol-3-ylamino)pyrimidin-2-ylamino)-2,5-dimethylphenyl)piperidin-1-yl)((2R,4R)-4-hydroxy-1-methylpyrrolidin-2-yl)methanone]	48
Cc1cc(Nc2nc(Nc3cc(C)c(C4CCCN(C[C@H](O)C(F)(F)F)C4)cc3C)ncc2Cl)n[nH]1 (stereo partly drawn) [Compound 201, (2S)-3-(3-(4-(5-chloro-4-(5-methyl-1H-pyrazol-3-ylamino)pyrimidin-2-ylamino)-2,5-dimethylphenyl)piperidin-1-yl)-1,1,1-trifluoropropan-2-ol]	46
Cc1cc(Nc2nc(Nc3cc(C)c(C4CCN(CCCS(=O)(=O)N5CCOCC5)CC4)cc3F)ncc2Cl)n[nH]1 [Compound 245, 5-chloro-N2-(2-fluoro-5-methyl-4-(1-(3-(morpholinosulfonyl)propyl)piperidin-4-yl)phenyl)-N4-(5-methyl-1H-pyrazol-3-yl)pyrimidine-2,4-diamine]	77
Cc1noc(CN2CCC(c3cc(F)c(Nc4ncc(Cl)c(Nc5cc(C)[nH]n5)n4)cc3C)CC2)n1 [Compound 293, 5-chloro-N2-(2-fluoro-5-methyl-4-(1-((3-methyl-1,2,4-oxadiazol-5-yl)methyl)piperidin-4-yl)phenyl)-N4-(5-methyl-1H-pyrazol-3-yl)pyrimidine-2,4-diamine]	26
Cc1cc(Nc2nc(Nc3cc(C)c(C4CCN(C(=O)[C@@H]5C(O)CCN5C)CC4)cc3F)ncc2Cl)n[nH]1 (stereo in doubt) [Compound 139, (4-(4-(5-chloro-4-(5-methyl-1H-pyrazol-3-ylamino)pyrimidin-2-ylamino)-5-fluoro-2-methylphenyl)piperidin-1-yl)((2S,3R)-3-hydroxy-1-methylpyrrolidin-2-yl)methanone]	175
Cc1cc(Nc2nc(Nc3cc(C)c(C4CCN(C(=O)C(C)N)CC4)cc3F)ncc2Cl)n[nH]1 (stereo not shown) [Compound 86, 2-amino-1-(4-(4-(5-chloro-4-(5-methyl-1H-pyrazol-3-ylamino)pyrimidin-2-ylamino)-5-fluoro-2-methylphenyl)piperidin-1-yl)propan-1-one]	141
Cc1cc(Nc2nc(Nc3cc(C)c(C4CCN(CCC(N)=O)CC4)cc3C)ncc2Cl)n[nH]1 [Compound 236, 3-(4-(4-(5-Chloro-4-(5-methyl-1H-pyrazol-3-ylamino)pyrimidin-2-ylamino)-2,5-dimethylphenyl)piperidin-1-yl)propanamide]	59
Cc1cc(Nc2nc(Nc3cc(Cl)c(C4CCN(C(=O)CN(C)C)CC4)cc3C)ncc2Cl)n[nH]1 [Compound 74, 1-(4-(2-chloro-4-(5-chloro-4-(5-methyl-1H-pyrazol-3-ylamino)pyrimidin-2-ylamino)-5-methylphenyl)piperidin-1-yl)-2-(dimethylamino)ethanone]	7
Cc1cc(Nc2nc(Nc3cc(C)c(C4CCN(Cc5nc(C(C)C)no5)CC4)cc3F)ncc2Cl)n[nH]1 [Compound 259, 5-Chloro-N^2-(2-fluoro-4-(1-((3-isopropyl-1,2,4-oxadiazol-5-yl)methyl)piperidin-4-yl)-5-methylphenyl)-N-(5-methyl-1H-pyrazol-3-yl)pyrimidine-2,4-diamine]	64
Cc1cc(Nc2nc(Nc3cc(C)c(C4CCN(C5CCOCC5)CC4)cc3F)ncc2Cl)n[nH]1 [Compound 209, 5-chloro-N^2-(2-fluoro-5-methyl-4-(1-(tetrahydro-2H-pyran-4-yl)piperidin-4-yl)phenyl)-N^4-(5-methyl-1H-pyrazol-3-yl)pyrimidine-2,4-diamine]	27
Cc1cc(Nc2nc(Nc3cc(C)c(C4CCN(Cc5noc(C)n5)CC4)cc3F)ncc2Cl)n[nH]1 [Compound 292, 5-chloro-N2-(2-fluoro-5-methyl-4-(1-((5-methyl-1,2,4-oxadiazol-3-yl)methyl)piperidin-4-yl)phenyl)-N4-(5-methyl-1H-pyrazol-3-yl)pyrimidine-2,4-diamine]	23
Cc1cc(C2CCN(C(=O)C3(N)CC3)CC2)c(C)cc1Nc1ncc(Cl)c(Nc2cc(C3CC3)[nH]n2)n1 [Compound 188, (1-aminocyclopropyl)(4-(4-(5-chloro-4-(5-cyclopropyl-1H-pyrazol-3-ylamino)pyrimidin-2-ylamino)-2,5-dimethylphenyl)piperidin-1-yl)methanone]	19
Cc1cc(C2CCN(CC(N)=O)CC2)c(C)cc1Nc1ncc(Cl)c(Nc2cc(C3CC3)[nH]n2)n1 [Compound 35, 2-(4-(4-(5-chloro-4-(5-cyclopropyl-1H-pyrazol-3-ylamino)pyrimidin-2-ylamino)-2,5-dimethylphenyl)piperidin-1-yl)acetamide]	11
CCOC(=O)N1CCC(c2cc(C)c(Nc3ncc(Cl)c(Nc4cc(C)[nH]n4)n3)cc2Cl)CC1 [Compound 67, ethyl 4-(2-chloro-4-(5-chloro-4-(5-methyl-1H-pyrazol-3-ylamino)pyrimidin-2-ylamino)-5-methylphenyl)piperidine-1-carboxylate]	182
